Laboratory results: the pKa sets of Baltruschat and Czodrowski (2020)
Where a SMILES comes first, the peptide text is derived from it.

Settings: acidic group

SMILES	pKa
CCCOc1ccc(O)cc1	10.2
Cc1cccnc1/C=N/O	10.5
CNc1nc(C)nc2[nH]ncc12	11.3
Oc1cn[nH+]c2ccccc12	-0.35
CC(I)[N+](=O)[O-] (configuration not stated)	7.24
O=C(O)C12CC3(F)CC(F)(CC(F)(C3)C1)C2	3.24
C[N+](C)(C)Cc1ccc(O)cc1	8.75
Nc1ccccc1[N+](=O)[O-]	13.4
CCOCCn1c(CN2CC[NH+](CCCCn3cc(C(=O)O)cn3)CC2)[nH+]c2ccccc21	3.8
CC(=O)OCC(=N/O)/C(C)=N/O	9.7
[S-]c1ccncc1	8.83
CS(=O)c1cccc(O)c1 (configuration not stated)	8.75
CC(=O)[n+]1ccc(C#N)cc1	1.98
O=C(O)c1ccccc1/N=C/C=C/c1ccccc1	6.12
Cc1cccc([Se]CC(=O)O)c1	3.78
O=c1oc2cc(O)ccc2cc1-c1nc2ccccc2o1	6.84
CC(C)(C)C1C(=O)NC(=O)NC1=O	7.98
CCC(C)C[C@H]([NH3+])C(=O)O (some centres not stated)	3.25
Cc1ncc(CO)c(C[NH3+])c1O	8.02
CC(=O)c1cccc(O)c1	9.12
O=C(O)c1cc(O)c(O)c(C(=O)O)[o+]1	0.6
CN(C)c1cc[n+](O)cc1	3.9
COc1ccccc1-c1nnn[nH]1	4.8
CCC(C)(O)C(C(=O)O)c1ccc(-c2ccccc2)cc1 (configuration not stated)	3.41
COCC(=O)NN	12.1
O=c1ccccc(O)c1	5.4
O=[N+]([O-])c1[nH]cnc1Cl	5.9

SMILES	pKa
CC(C)c1cc(O)c(=O)ccc1Br	6.53
Cc1ncnc2nc[nH]c12	9.21
O=C(O)C12CCC(CC1)C2	4.89
O=C(O)Cc1[nH]c2ccccc2[nH+]1	0.2
O=S(=O)(Cc1ccccc1)c1ncc[nH]1	8.67
CC1=CC(C)(C)SC(=S)N1	10.9
O=C(O)/C=C\C(=O)NOCc1ccccc1	3.8
CC(C(=O)O)c1ccc(-c2ccccc2)c(F)c1 (configuration not stated)	4.22
CCCC[P+](CCCC)(CCCC)C1c2ccccc2-c2ccccc21	10.5
O=C(O)CCP	4.23
[NH3+]CCc1ccccc1O	9.19
CC(=N\O)/C(CN(C)C)=N\[O-]	12.5
O=C(O)CCCc1ccccc1	4.78
O=C(O)CCCP	4.53
C[C@H]1CC[C@H](C(=O)O)CC1	4.89
CC[NH+](CC)CC(=N\O)/C(C)=N/O	8.5
CC1(C)C(=O)[CH-]C(=O)CC1=O	9.73
O=P([O-])([O-])C([NH2+]Cc1cccnc1)c1ccccc1O (configuration not stated)	10.2
COc1csc(C(=O)O)c1	3.41
CC(C)(C)OC(=O)NS(=O)(=O)c1ccc(S(C)(=O)=O)cc1	3.76
Brc1ccccc1-c1nnn[nH]1	3.83
N#CC(C#N)=C(C#N)Nc1ccc(C(=O)O)cc1	4.2
CCC[Se](=O)O	5.25
O=C(O)CCCc1c[nH]c[nH+]1	4.26
Cc1cc(C)c2c(O)c(CC(=O)O)oc2c1	4.75
C/C=C/CC(=O)O	4.28
Cc1ccc(O)cc1Cc1cc([N+](=O)[O-])ccc1[O-]	10.3

SMILES	pKa
CCCCOc1ccc(O)cc1	10.2
Oc1ccc2cnccc2c1	9.15
OC(O)c1ccccn1	12.8
O=C(O)C1(O)CCCC1	4.11
Cc1c(Cl)ccc2c1nnn2O	4.09
O=C(NBr)c1ccccc1	7.3
O=[N+]([O-])c1ccc(/C=N/O)cc1	10
N#Cc1ncnc2nc[nH]c12	6.88
O=C(O)/C=C/c1ccccc1O	4.56
Nc1nc(N)nc([S-])n1	10.2
Oc1ccc(O)c(Cl)c1	8.81
Cc1cc([N+](=O)[O-])cc2c1nnn2O	3.43
Nc1ccc[nH+]c1C(=O)O	1.33
CCCc1nnn[nH]1	5.61
C[n+]1ccccc1C(C)(O)O	10.6
CC(=S)Nc1ccc([N+](=O)[O-])cc1	9.89
O=C(O)c1ccc([N+](=O)[O-])cc1	3.43
O=[N+]([O-])c1ccc(S)c([N+](=O)[O-])c1	3.4
OC[C@H]1O[C@@H]2NC(=S)O[C@@H]2[C@H]1O	9.48
O=C(O)C1CC1(Br)Br (configuration not stated)	3.57
Cc1csc(Cc2ccccc2)[n+]1C	10.8
C[Si](C)(C)CCCCC(=O)O	4.96
COc1ccc(-c2c(O)c2=O)cc1	2.33
CCC[n+]1cccc2c(O)cccc21	6.06
Fc1ccc(NC(=S)c2cccc(Br)c2)cc1	10.3

Same assay, conditions: basic group

SMILES	pKa
CC1(C)CC(Nc2ccccc2)=C/C(=N/c2ccccc2)C1	9.89
Cn1c2c(s/c1=N\N)CCCC2	8.2
c1ccc(-n2cccn2)nc1	1.07
Nc1ccc2nc(/C=C/c3ccccc3)ccc2c1	5.5
Cc1ccc(C(C)C)c(OCCN(C)C)c1	8.66
CNc1nc(C)nc2[nH]ncc12	5.56
CCc1ccnc2c1ccc1c(CC)ccnc12	5.6
CCCCN(CCCC)c1nnc(-c2ccccc2)cc1C	4.88
CCCNCC(=O)[O-]	10.2
NCCCCl	9.89
Cc1ccc(N)cc1[N+](=O)[O-]	3
COc1ccc(C=O)cc1C(=O)N[C@@H]1C[C@H]2CC[C@@H](C1)N2Cc1ccccc1	8.74
[O-]c1nccc2c1cnc1ccccc12	11.3
Nc1ccccc1[N+](=O)[O-]	-0.24
CC(C)(C)n1ccnc1	7.35
NCC(=O)NCC(=O)NCC(=O)N1CCC[C@H]1C(=O)[O-] (H-GGGP-OH)	8.04
Cc1ncnc2c1NCCN2	6.74
COc1ccc(Nc2ccccc2)cc1	1.38
CCCCCCNCc1ccc(C)cc1	10.2
Cc1cc2ncn([C@H]3OC[C@H](O)[C@H](O)[C@@H]3O)c2cc1C	4.7
Cc1ncc(CO)c(C[NH3+])c1O	3.38
Cc1cc(N)ncn1	6.25
CCCN(CC(C)O)CC(O)CC (configuration not stated)	9
C1C[NH2+]CCSCCN1	4.16
CCNC[Si](C)(C)C	11.1

SMILES	pKa
CN(C)c1cc[n+](O)cc1	-7.58
c1cc(N2CCCC2)cc[nH+]1	-0.53
CC(=O)Nc1cccnc1	4.44
O=C(N/[NH+]=C/c1ccccc1)c1ccncc1	1.82
CN1[C@@H]2C[C@@H]3C[C@H]1[C@@H](O)[C@H]2O3	8.2
CC(N)CCc1ccccc1 (configuration not stated)	9.78
Cc1cc(C)[nH+]c([S-])n1	2.8
CC(=O)n1ccnc1C	5.03
O=[N+]([O-])c1[nH]cnc1Cl	-1.3
Cc1ncnc2nc[nH]c12	2.6
O=Cc1ccnc2ccccc12	4.25
O=C([O-])CC(c1ncc[nH]1)c1ncc[nH]1	6.9
O=C(O)Cc1[nH]c2ccccc2[nH+]1	-4.7
COCCNc1cccc(C)c1	4.29
Cn1cnc2c(N)nc[nH+]c21	-0.59
Cc1cc(CO)c(C)c(C)n1	7.3
CCN(CC)CCC[NH+](CC)CC	8.2
CCCCNCCCC	11.3
Nc1ccnnc1	6.69
COc1nc2ccccc2[nH]1	3.75
CCN(C)N(C)C	6.38
CC(C)S(=O)(=O)n1c(N)nc2ccc(/C(=C/C(N)=O)c3cccc(F)c3)cc21	3.41
CN1[C@@H]2CC[C@H]1C[C@H](OC(=O)C(O)c1ccccc1)C2 (some centres not stated)	9.61
NCC[NH2+]CCCO	6.78
CN(C1=NCCO1)c1ccccc1	8.51

SMILES	pKa
CCN(C)N(C)CC	6.8
COc1cc(OS(C)(=O)=O)ccc1-c1cn2cccnc2n1	3.95
Brc1cccnc1	2.94
c1coc(C2CN3CCC2CC3)c1 (configuration not stated)	10
Cc1cccc(/N=N/c2ccc(N(C)C)cc2)c1	2.33
Cc1cccc(N)c1-c1c(C)cccc1[NH3+]	2.1
Clc1ccccn1	0.72
CN(C)c1ncccn1	3.96
Cc1ncc(CO)c(C)c1OCc1ccccc1	5.52
CN(C)c1ccc2nc3ccc(N)cc3nc2c1	6.6
COc1ccc(S(=O)(=O)CCN2CCOCC2)c(OC)c1OC	4.89
CCC(=O)C(CC(C)N1CCCCC1)(c1ccccc1)c1ccccc1 (configuration not stated)	8.58
NNC(=O)c1ccc(N)cc1	3.56
Cc1[nH+]c2cccc(N)c2n1C	2.35
CCOC(=O)c1cc(-c2ccccc2)nnc1NCC[NH+]1CCOCC1	1.5
CC1CNCc2ccccc2OCCOc2ccccc2CN1 (configuration not stated)	9.41
CCN(C)CC	10.4
CN[C@H]1C[C@@H]1[NH2+]C	5.65
Oc1ccc2cnccc2c1	5.85
CNCC(O)c1ccccc1 (configuration not stated)	9.31
CCN(CC)Cc1ccccc1	9.44
CN(C)C1CCCCC1	10.5
COc1cccc(C2NCCS2)c1 (configuration not stated)	5.12
CCCCCCCCCNCc1ccc(C)cc1	9.48
NCC(N)CN	9.59

SMILES	pKa
CCOC(=O)N1CCNCC1	8.28
CC[C@H]1[C@H](CC2=N/C(=C/c3[nH]c(C[C@@H]4NC(=O)[C@H](CC)[C@H]4C)c(C)c3CCC(=O)[O-])C(CCC(=O)[O-])=C2C)NC(=O)[C@@H]1C	7.6
Nc1ccc(Cl)cn1	4.83
CCc1cc(C)nnc1C	4.73
Cc1cnc2c(ccc3c(C)ccnc32)c1C	5.99
c1ccc(C2CN2)cc1 (configuration not stated)	6.47
Nc1ncc2[nH]c[nH+]c2n1	-0.28
Nc1nc(N)nc([S-])n1	7.8
C1CN2CC[C@@H]3OC[C@H]1[C@@H]32	9.44
[O-]c1cc[n+]([C@H]2O[C@@H](CO)[C@H](O)[C@H]2O)c([O-])n1	9.3
c1cnc2c(c1)CCCC2	6.6
CC[C@]12CCCN3CCc4c(n(c5ccccc45)CC1)[C@@H]32	6.9
CC(C)C[C@H](N)C(=O)[O-]	9.62
Nc1ccc2[nH]cnc2c1	6.11
Nc1ncc2ncn([C@H]3O[C@@H](CO)[C@H](O)[C@@H]3O)c2n1	3.4
CN(C)CCCCCCCNC(=O)/C=N/[O-]	10.5
CNCCCC(=O)[O-]	10.8
N[C@H]1CCC[C@@H]1O	9.28
CN(C)CCN(C)CC[NH+](C)C	8.63
Cc1cc([O-])ncn1	9
ClCC1CC2CCN1CC2 (configuration not stated)	9.68
Cn1ccc(=NC(=O)c2ccccc2)cc1	9.89
CC1CCN(C(C)C=C(c2cccs2)c2cccs2)CC1 (configuration not stated)	8.2
